Experimental data from patent publication US20210045385A1, “PYRIDAZINONE-SUBSTITUTED KETOXIMES AS HERBICIDES” (FMC Corporation, priority 2018, published 2021).

Experiments:
Type in all cases: in vivo
[1] = test system: Italian ryegrass (Lolium mutiflorum); experiment: Test C preemergence, visual plant response rating
Method in brief: (§1)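 Compounds in a non-phytotoxic solvent with surfactant were applied as a directed soil spray preemergence or to 2–10 cm, one- to two-leaf plants postemergence, in loam–sand soil. After about 10 d in a greenhouse, injury was visually rated against untreated controls on a 0–100 scale (100 = complete control).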

[2] = test system: barnyardgrass (Echinochloa crus-galli); experiment: Test C preemergence, visual plant response rating
Method in brief: as §1

[3] = test system: foxtail, giant (giant foxtail, Setaria faberi); experiment: Test C preemergence, visual plant response rating
Method in brief: as §1

kochia (Bassia scoparia) [4] = experiment: Test C preemergence, visual plant response rating
Method in brief: as §1

[5] = test system: pigweed (Amaranthus retroflexus); experiment: Test C preemergence, visual plant response rating
Method in brief: as §1

[6] = test system: ragweed (common ragweed, Ambrosia artemisiifolia); experiment: Test C preemergence, visual plant response rating
Method in brief: as §1

[7] = test system: Italian ryegrass (Lolium mutiflorum); experiment: Test C postemergence, visual plant response rating
Method in brief: as §1

[8] = test system: barnyardgrass (Echinochloa crus-galli); experiment: Test C postemergence, visual plant response rating; details: Test C, postemergence
Method in brief: as §1

[9] = test system: blackgrass (Alopecurus myosuroides); experiment: Test C postemergence, visual plant response rating; details: Test C, postemergence
Method in brief: as §1

corn (Zea mays) = experiment: Test C postemergence, visual plant response rating; details: Test C, postemergence
Method in brief: as §1

[10] = test system: foxtail, giant (giant foxtail, Setaria faberi); experiment: Test C postemergence, visual plant response rating; details: Test C, postemergence
Method in brief: as §1

[11] = test system: galium (catchweed bedstraw, Galium aparine); experiment: Test C postemergence, visual plant response rating; details: Test C, postemergence
Method in brief: as §1

kochia (Bassia scoparia) [12] = experiment: Test C postemergence, visual plant response rating; details: Test C, postemergence
Method in brief: as §1

[13] = test system: pigweed (Amaranthus retroflexus); experiment: Test C postemergence, visual plant response rating
Method in brief: as §1

[14] = test system: ragweed (common ragweed, Ambrosia artemisiifolia); experiment: Test C postemergence, visual plant response rating
Method in brief: as §1

[15] = test system: wheat (Triticum aestivum); experiment: Test C postemergence, visual plant response rating
Method in brief: as §1

[16] = test system: barnyardgrass (Echinochloa crus-galli); experiment: Test D flooded paddy test, visual plant response rating; details: 250 g ai/ha, scale 0 to 100 (0 no effect, 100 complete control), 13 to 15 d
Method in brief: (§2)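 2-leaf plants, flooded 3 cm, cpd into paddy water; greenhouse 13–15 d; visual rating vs controls, 0 = no effect, 100 = complete control; dash = no result.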

[17] = test system: duck salad (Heteranthera limosa); experiment: as above; details: 250 g ai/ha, scale 0 to 100 (0 no effect, 100 complete control), 13 to 15 d
Method in brief: as §2

rice (Oryza sativa) = experiment: as above; details: 250 g ai/ha, scale 0 to 100 (0 no effect, 100 complete control), 13 to 15 d
Method in brief: as §2

[18] = test system: sedge umbrella (small-flower umbrella sedge, Cyperus difformis); experiment: as above; details: 250 g ai/ha, scale 0 to 100 (0 no effect, 100 complete control), 13 to 15 d
Method in brief: as §2

[19] = Test C, 31 g ai/ha, 0 is no effect, 100 is complete control
[20] = Test C, postemergence, 125 g ai/ha

| Compound | Ryegrass, Italian plant response rating (0 to 100 scale) ([1]; 125 g ai/ha) | Ryegrass, Italian plant response rating (0 to 100 scale) [1, 19] | Barnyardgrass plant response rating (0 to 100 scale) ([2]; 125 g ai/ha) | Barnyardgrass plant response rating (0 to 100 scale) [2, 19] | Foxtail, Giant plant response rating (0 to 100 scale) ([3]; 125 g ai/ha) | Foxtail, Giant plant response rating (0 to 100 scale) [3, 19] | Kochia plant response rating (0 to 100 scale) (kochia (Bassia scoparia) [4]; 125 g ai/ha) | Kochia plant response rating (0 to 100 scale) (kochia (Bassia scoparia) [4]; [19]) | Pigweed plant response rating (0 to 100 scale) ([5]; 125 g ai/ha) | Pigweed plant response rating (0 to 100 scale) [5, 19] | Ragweed plant response rating (0 to 100 scale) ([6]; 125 g ai/ha) | Ragweed plant response rating (0 to 100 scale) [6, 19] | Ryegrass, Italian plant response rating (0 to 100 scale) ([7]; Postemergence, 31 g ai/ha) | Ryegrass, Italian plant response rating (0 to 100 scale) [7, 20] | Barnyardgrass plant response rating (0 to 100 scale) ([8]; 31 g ai/ha) | Barnyardgrass plant response rating (0 to 100 scale) ([8]; 125 g ai/ha) | Blackgrass plant response rating (0 to 100 scale) ([9]; 31 g ai/ha) | Blackgrass plant response rating (0 to 100 scale) ([9]; 125 g ai/ha) | Corn plant response rating (0 to 100 scale) (corn (Zea mays); 31 g ai/ha) | Corn plant response rating (0 to 100 scale) (corn (Zea mays); 125 g ai/ha) | other results |
| --- | --- | --- | --- | --- | --- | --- | --- | --- | --- | --- | --- | --- | --- | --- | --- | --- | --- | --- | --- | --- | --- |
| C#CCO/N=C(\c1cc(C)cc(Cl)c1)c1c(O)c(C)nn(C)c1=O [Compound 155] | 100 | 40 | 100 | 70 | 90 | 80 | 90 | 0 | 100 | 40 | 90 | 70 | 90 | 100 | 50 | 80 | 30 | 90 | 0 | 20 | Foxtail, Giant plant response rating (0 to 100 scale) ([10]; 31 g ai/ha): 80; Foxtail, Giant plant response rating (0 to 100 scale) ([10]; 125 g ai/ha): 90; Galium plant response rating (0 to 100 scale) ([11]; 31 g ai/ha): 90; Galium plant response rating (0 to 100 scale) ([11]; 125 g ai/ha): 90; Kochia plant response rating (0 to 100 scale) (kochia (Bassia scoparia) [12]; 31 g ai/ha): 70; Kochia plant response rating (0 to 100 scale) (kochia (Bassia scoparia) [12]; 125 g ai/ha): 80; Pigweed plant response rating (0 to 100 scale) ([13]; Postemergence, 31 g ai/ha): 50; Pigweed plant response rating (0 to 100 scale) [13, 20]: 100; Ragweed plant response rating (0 to 100 scale) ([14]; Postemergence, 31 g ai/ha): 90; Ragweed plant response rating (0 to 100 scale) [14, 20]: 100; Wheat plant response rating (0 to 100 scale) ([15]; Postemergence, 31 g ai/ha): 0; Wheat plant response rating (0 to 100 scale) [15, 20]: 60; Plant response rating, Barnyardgrass (Flood) [16]: 15; Plant response rating, Ducksalad (Flood) [17]: 30; Plant response rating, Rice (Flood) (rice (Oryza sativa)): 0; Plant response rating, Sedge, Umbrella (Flood) [18]: 45 |
| CO/N=C(/c1cc(Cl)cc(Br)c1)c1c(O)c(C)nn(C)c1=O [Compound 156] | 100 | 100 | 80 | 0 | 100 | 50 | 100 | 40 | 80 | 40 | 100 | 100 | 100 | 100 | 40 | 70 | 30 | 30 | 20 | 20 | Foxtail, Giant plant response rating (0 to 100 scale) ([10]; 31 g ai/ha): 60; Foxtail, Giant plant response rating (0 to 100 scale) ([10]; 125 g ai/ha): 90; Galium plant response rating (0 to 100 scale) ([11]; 31 g ai/ha): 100; Galium plant response rating (0 to 100 scale) ([11]; 125 g ai/ha): 100; Kochia plant response rating (0 to 100 scale) (kochia (Bassia scoparia) [12]; 31 g ai/ha): 80; Kochia plant response rating (0 to 100 scale) (kochia (Bassia scoparia) [12]; 125 g ai/ha): 100; Pigweed plant response rating (0 to 100 scale) ([13]; Postemergence, 31 g ai/ha): 70; Pigweed plant response rating (0 to 100 scale) [13, 20]: 80; Ragweed plant response rating (0 to 100 scale) ([14]; Postemergence, 31 g ai/ha): 90; Ragweed plant response rating (0 to 100 scale) [14, 20]: 100; Wheat plant response rating (0 to 100 scale) ([15]; Postemergence, 31 g ai/ha): 0; Wheat plant response rating (0 to 100 scale) [15, 20]: 50; Plant response rating, Barnyardgrass (Flood) [16]: 0; Plant response rating, Ducksalad (Flood) [17]: 30; Plant response rating, Rice (Flood) (rice (Oryza sativa)): 0; Plant response rating, Sedge, Umbrella (Flood) [18]: 30 |
